From article PMC9343605, “Structural insights into ligand recognition and selectivity of somatostatin receptors” (Cell Research, 2022)

Key:
SSTR4 [1] = assay: Whole cell binding assay, SSTR4, competition with 125I-Tyr11-SST14, CHO-K1; set-up: species or system human; conditions: IC50(mutant)/IC50(WT)
Experimental: For SSTR2 and SSTR4, CHO-K1 cells were cultured in F12 medium with 10% FBS and seeded at a density of 30,000 cells/well in Isoplate-96 plates (PerkinElmer). Twenty-four hours after transfection with the WT or mutant SSTR2/SSTR4, CHO-K1 cells were washed twice and incubated with blocking buffer (F12 supplemented with 25 mM HEPES and 0.1% (w/v) BSA, pH 7.4) for 2 h at 37 °C. […] Following incubation, cells were washed three times with ice-cold PBS and lysed by 50 μL lysis buffer (PBS supplemented with 20 mM Tris-HCl, 1% Triton X-100, pH 7.4). The radioactivity was subsequently counted (counts/min, CPM) in a scintillation counter (MicroBeta[2] Plate Counter, PerkinElmer) using a scintillation cocktail (OptiPhaseSuperMix, PerkinElmer). Data were analyzed by nonlinear regression using GraphPad PRISM 8.
aMutants represent that all mutations were introduced separately into the WT receptors
and expressed in CHO K1 cells.
bThe IC50 ratio was shown as IC50(mutant)/IC50(WT), indicating the shift between the WT
and mutant curves, reflecting the effect of the mutations on ligand binding.
cData are shown as mean ± S.E.M. form at least three independent experiments
(§1) performed in technical triplicate. One-way ANOVA was performed followed by
Dunnett’s post-test and compared with WT.
(§2) d The span is defined as the window between the maximal agonists response (Emax) and
(§3) e Sample size; the number of independent experiments performed in technical triplicate.

SSTR4 [2] = biological target: SSTR4 (Homo sapiens, UniProt P31391, M130A); assay: cAMP accumulation assay (agonist-induced inhibition of forskolin-stimulated cAMP), SSTR4, HEK293F; assay type: cell-based; set-up: expressed in transfected cells; host or cells: HEK293F; conditions: SSTR4 mutant M130^3.36A; mean ± SEM;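 note: transiently transfected cells incubated 40 min at room temperature with 4 µM forskolin and graded ligand, cAMP read by LANCE Ultra TR-FRET kit, values normalized to WT receptor per ligand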
Chain of SSTR4 (Homo sapiens, UniProt P31391, M130A) (P31391 whole entry M130A): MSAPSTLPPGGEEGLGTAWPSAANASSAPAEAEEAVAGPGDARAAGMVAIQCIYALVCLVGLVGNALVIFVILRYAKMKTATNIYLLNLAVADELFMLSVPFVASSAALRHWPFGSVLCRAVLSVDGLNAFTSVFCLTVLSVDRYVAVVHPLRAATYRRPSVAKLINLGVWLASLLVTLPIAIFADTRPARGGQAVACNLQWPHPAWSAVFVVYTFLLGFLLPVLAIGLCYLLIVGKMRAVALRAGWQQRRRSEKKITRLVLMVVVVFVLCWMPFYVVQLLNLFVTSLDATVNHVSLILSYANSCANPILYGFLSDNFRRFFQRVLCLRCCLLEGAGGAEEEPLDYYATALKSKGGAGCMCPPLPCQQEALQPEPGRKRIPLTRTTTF
Experimental: (§4) HEK293F cells were transiently transfected with WT or mutant SSTR2/SSTR4 using transfection reagent (PEI MAX 2000, Polysciences) and incubated at 37 °C in 5% CO2. Forty-eight hours after transfection, cells were centrifuged and resuspended in stimulation buffer (Hanks’ balanced salt solution (HBSS) supplemented with 5 mM HEPES, 0.5 mM IBMX and 0.1% (w/v) bovine serum albumin (BSA), pH 7.4) to a density of 200,000 cells/mL and added to 384-well white plates (PerkinElmer, 1000 cells/well). cAMP accumulation was measured by a LANCE Ultra cAMP kit (PerkinElmer) according to the manufacturer’s instructions. In brief, transfected cells were incubated for 40 min in stimulation buffer with 2.5 μL forskolin (SSTR2: 2 μM; SSTR4: 4 μM) and gradient concentration of ligand at RT. The reactions were stopped by addition of lysis buffer containing 5 μL Eu-cAMP tracer and 5 μL ULight-anti-cAMP. Plates were then incubated for 60 min at RT and time-resolved FRET signals were measured at 620 nm and 665 nm by an EnVision multilabel plate reader (PerkinElmer). Data were analyzed in GraphPad PRISM 8 and all values were normalized to the WT for each ligand. All outcomes were repeated at least three times.
(§5) aMutants represent that mutations were introduced separately into the WT receptors and
(§6) transiently expressed in HEK 293F cells.
(§7) bThe EC50 ratio was shown as EC50(mutant)/EC50(WT), indicating the shift between the WT
(§8) and mutant curves, reflecting the effect of the mutations on receptor signaling.
(§9) cData are shown as mean ± S.E.M. from at least three independent experiments
as §1
(§10) Dunnett’s post-test and compared with WT. The P value was defined as: *P<0.05;
as §2, §3
(§11) f Receptor expression level of HEK 293F cells was determined independently by flow
(§12) cytometry with anti-FLAG antibody and shown as per cent compared to the WT.

SSTR4 [3] = biological target: SSTR4 (Homo sapiens, UniProt P31391); assay: as above; assay type: cell-based; set-up: expressed in transfected cells; host or cells: HEK293F; conditions: WT SSTR4, mean ± SEM
Chain of SSTR4 (Homo sapiens, UniProt P31391) (P31391 whole entry): as the sequence (P31391 whole entry M130A) above, with A130M counted along it
Experimental: as §4, §5, §6, §7, §8, §9, §1, §10, §2, §3, §11, §12

SSTR4 [4] = biological target: SSTR4 (Homo sapiens, UniProt P31391, N199A); assay: as above; assay type: cell-based; set-up: expressed in transfected cells; host or cells: HEK293F; conditions: SSTR4 mutant N199^ECL2A; mean ± SEM
Chain of SSTR4 (Homo sapiens, UniProt P31391, N199A) (P31391 whole entry N199A): as the sequence (P31391 whole entry M130A) above, with A130M, N199A counted along it
Experimental: as §4, §5, §6, §7, §8, §9, §1, §10, §2, §3, §11, §12

SSTR4 [5] = biological target: SSTR4 (Homo sapiens, UniProt P31391, F275A); assay: as above; assay type: cell-based; set-up: expressed in transfected cells; host or cells: HEK293F; conditions: SSTR4 mutant F275^6.51A; mean ± SEM
Chain of SSTR4 (Homo sapiens, UniProt P31391, F275A) (P31391 whole entry F275A): as the sequence (P31391 whole entry M130A) above, with A130M, F275A counted along it
Experimental: as §4, §5, §6, §7, §8, §9, §1, §10, §2, §3, §11, §12

SSTR4 [6] = biological target: SSTR4 (Homo sapiens, UniProt P31391, T215A); assay: as above; assay type: cell-based; set-up: expressed in transfected cells; host or cells: HEK293F; conditions: SSTR4 mutant T215^5.42A; mean ± SEM
Chain of SSTR4 (Homo sapiens, UniProt P31391, T215A) (P31391 whole entry T215A): as the sequence (P31391 whole entry M130A) above, with A130M, T215A counted along it
Experimental: as §4, §5, §6, §7, §8, §9, §1, §10, §2, §3, §11, §12

SSTR4 [7] = biological target: SSTR4 (Homo sapiens, UniProt P31391, D126A); assay: as above; assay type: cell-based; set-up: expressed in transfected cells; host or cells: HEK293F; conditions: SSTR4 mutant D126^3.32A; mean ± SEM
Chain of SSTR4 (Homo sapiens, UniProt P31391, D126A) (P31391 whole entry D126A): as the sequence (P31391 whole entry M130A) above, with D126A, A130M counted along it
Experimental: as §4, §5, §6, §7, §8, §9, §1, §10, §2, §3, §11, §12

SSTR4 [8] = biological target: SSTR4 (Homo sapiens, UniProt P31391, Y276A); assay: as above; assay type: cell-based; set-up: expressed in transfected cells; host or cells: HEK293F; conditions: SSTR4 mutant Y276^6.52A; mean ± SEM
Chain of SSTR4 (Homo sapiens, UniProt P31391, Y276A) (P31391 whole entry Y276A): as the sequence (P31391 whole entry M130A) above, with A130M, Y276A counted along it
Experimental: as §4, §5, §6, §7, §8, §9, §1, §10, §2, §3, §11, §12

SSTR2 [9] = biological target: SSTR2 (Homo sapiens, UniProt P30874, Y302A); assay: cAMP accumulation assay (agonist-induced inhibition of forskolin-stimulated cAMP), SSTR2, HEK293F; assay type: cell-based; set-up: expressed in transfected cells; host or cells: HEK293F; conditions: SSTR2 mutant Y302^7.43A; mean ± SEM;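 note: transiently transfected cells exposed to 2 µM forskolin and a ligand concentration series for 40 min at room temperature in IBMX-containing HBSS, then cAMP quantified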
Chain of SSTR2 (Homo sapiens, UniProt P30874, Y302A) (P30874 whole entry Y302A): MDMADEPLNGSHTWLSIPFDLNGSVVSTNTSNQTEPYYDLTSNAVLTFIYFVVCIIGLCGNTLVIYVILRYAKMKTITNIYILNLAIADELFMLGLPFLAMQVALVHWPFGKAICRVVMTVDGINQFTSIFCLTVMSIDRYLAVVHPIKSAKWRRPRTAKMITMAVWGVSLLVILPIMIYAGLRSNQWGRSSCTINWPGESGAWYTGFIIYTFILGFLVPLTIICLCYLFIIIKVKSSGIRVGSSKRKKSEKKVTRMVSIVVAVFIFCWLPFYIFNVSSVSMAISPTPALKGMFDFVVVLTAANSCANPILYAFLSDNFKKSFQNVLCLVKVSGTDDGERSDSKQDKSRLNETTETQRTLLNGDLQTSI
Experimental: as §4, §5, §6, §7, §8, §9, §1, §10, §2, §3, §11, §12

SSTR2 [10] = biological target: SSTR2 (Homo sapiens, UniProt P30874, F275A); assay: as above; assay type: cell-based; set-up: expressed in transfected cells; host or cells: HEK293F; conditions: SSTR2 mutant F275^6.54A; mean ± SEM
Chain of SSTR2 (Homo sapiens, UniProt P30874, F275A) (P30874 whole entry F275A): as the sequence (P30874 whole entry Y302A) above, with F275A, A302Y counted along it
Experimental: as §4, §5, §6, §7, §8, §9, §1, §10, §2, §3, §11, §12

SSTR2 [11] = biological target: SSTR2 (Homo sapiens, UniProt P30874, D122A); assay: as above; assay type: cell-based; set-up: expressed in transfected cells; host or cells: HEK293F; conditions: SSTR2 mutant D122^3.32A; mean ± SEM
Chain of SSTR2 (Homo sapiens, UniProt P30874, D122A) (P30874 whole entry D122A): as the sequence (P30874 whole entry Y302A) above, with D122A, A302Y counted along it
Experimental: as §4, §5, §6, §7, §8, §9, §1, §10, §2, §3, §11, §12

SSTR2 [12] = biological target: SSTR2 (Homo sapiens, UniProt P30874, Y205A); assay: as above; assay type: cell-based; set-up: expressed in transfected cells; host or cells: HEK293F; conditions: SSTR2 mutant Y205^5.35A
Chain of SSTR2 (Homo sapiens, UniProt P30874, Y205A) (P30874 whole entry Y205A): as the sequence (P30874 whole entry Y302A) above, with Y205A, A302Y counted along it
Experimental: as §4, §5, §6, §7, §8, §9, §1, §10, §2, §3, §11, §12

SSTR2 [13] = biological target: SSTR2 (Homo sapiens, UniProt P30874, T212A); assay: as above; assay type: cell-based; set-up: expressed in transfected cells; host or cells: HEK293F; conditions: SSTR2 mutant T212^5.42A; mean ± SEM
Chain of SSTR2 (Homo sapiens, UniProt P30874, T212A) (P30874 whole entry T212A): as the sequence (P30874 whole entry Y302A) above, with T212A, A302Y counted along it
Experimental: as §4, §5, §6, §7, §8, §9, §1, §10, §2, §3, §11, §12

SSTR2 [14] = biological target: SSTR2 (Homo sapiens, UniProt P30874, T194A); assay: as above; assay type: cell-based; set-up: expressed in transfected cells; host or cells: HEK293F; conditions: SSTR2 mutant T194^ECL2A; mean ± SEM
Chain of SSTR2 (Homo sapiens, UniProt P30874, T194A) (P30874 whole entry T194A): as the sequence (P30874 whole entry Y302A) above, with T194A, A302Y counted along it
Experimental: as §4, §5, §6, §7, §8, §9, §1, §10, §2, §3, §11, §12

SSTR2 [15] = biological target: SSTR2 (Homo sapiens, UniProt P30874, F272A); assay: as above; assay type: cell-based; set-up: expressed in transfected cells; host or cells: HEK293F; conditions: SSTR2 mutant F272^6.51A; mean ± SEM
Chain of SSTR2 (Homo sapiens, UniProt P30874, F272A) (P30874 whole entry F272A): as the sequence (P30874 whole entry Y302A) above, with F272A, A302Y counted along it
Experimental: as §4, §5, §6, §7, §8, §9, §1, §10, §2, §3, §11, §12

SSTR2 [16] = biological target: SSTR2 (Homo sapiens, UniProt P30874, Q126A); assay: as above; assay type: cell-based; set-up: expressed in transfected cells; host or cells: HEK293F; conditions: SSTR2 mutant Q126^3.36A; mean ± SEM
Chain of SSTR2 (Homo sapiens, UniProt P30874, Q126A) (P30874 whole entry Q126A): as the sequence (P30874 whole entry Y302A) above, with Q126A, A302Y counted along it
Experimental: as §4, §5, §6, §7, §8, §9, §1, §10, §2, §3, §11, §12

SSTR2 [17] = biological target: SSTR2 (Homo sapiens, UniProt P30874, Q102A); assay: as above; assay type: cell-based; set-up: expressed in transfected cells; host or cells: HEK293F; conditions: SSTR2 mutant Q102^2.63A; mean ± SEM
Chain of SSTR2 (Homo sapiens, UniProt P30874, Q102A) (P30874 whole entry Q102A): as the sequence (P30874 whole entry Y302A) above, with Q102A, A302Y counted along it
Experimental: as §4, §5, §6, §7, §8, §9, §1, §10, §2, §3, §11, §12

SSTR2 [18] = biological target: SSTR2 (Homo sapiens, UniProt P30874); assay: as above; assay type: cell-based; set-up: expressed in transfected cells; host or cells: HEK293F; conditions: WT SSTR2
Chain of SSTR2 (Homo sapiens, UniProt P30874) (P30874 whole entry): as the sequence (P30874 whole entry Y302A) above, with A302Y counted along it
Experimental: as §4, §5, §6, §7, §8, §9, §1, §10, §2, §3, §11, §12

SSTR2 [19] = biological target: SSTR2 (Homo sapiens, UniProt P30874, F294A); assay: as above; assay type: cell-based; set-up: expressed in transfected cells; host or cells: HEK293F; conditions: SSTR2 mutant F294^7.35A; mean ± SEM
Chain of SSTR2 (Homo sapiens, UniProt P30874, F294A) (P30874 whole entry F294A): as the sequence (P30874 whole entry Y302A) above, with F294A, A302Y counted along it
Experimental: as §4, §5, §6, §7, §8, §9, §1, §10, §2, §3, §11, §12

Cc1ccc(S(=O)(=O)N[C@@H](CCN)C(=O)N[C@@H](Cc2ccccc2)C(N)=O)c2ccccc12 [J-2156]
IC50 ratio (SSTR4 [1]; Construct 4 SSTR4): 0.5
IC50 ratio (SSTR4 [1]; SSTR4 mutant Q279^6.55A): 2
IC50 ratio (SSTR4 [1]; SSTR4 mutant T215^5.42A): 1
IC50 ratio (SSTR4 [1]; WT SSTR4): 1
Span (SSTR4 [2]): 78±6 % of WT
pEC50 ± SEM (SSTR4 [2]): 9.12±0.19
pEC50 ± SEM (SSTR4 [3]; HEK293F, at least three independent experiments): 9.73±0.08
Span (SSTR4 [3]; window between Emax and vehicle): 100±3 % of WT
Span (SSTR4 [4]): 88±5 % of WT
pEC50 ± SEM (SSTR4 [4]): 10.23±0.14
Span (SSTR4 [5]): 22±7 % of WT
Span (SSTR4 [6]): 92±5 % of WT
pEC50 ± SEM (SSTR4 [6]): 9.85±0.14
Span (SSTR4 [7]): 23±28 % of WT
Span (SSTR4 [8]): 106±6 % of WT
pEC50 ± SEM (SSTR4 [8]): 6.71±0.08

C[C@@H](c1c[nH]c2ccccc12)[C@@H](NC(=O)N1CCC(n2c(=O)[nH]c3ccccc32)CC1)C(=O)N[C@@H](CCCCN)C(=O)OC(C)(C)C [L-054,522]
Span (SSTR2 [9]): 96±8 % of WT
pEC50 ± SEM (SSTR2 [9]): 8.67±0.19
Span (SSTR2 [10]): 154±10 % of WT
pEC50 ± SEM (SSTR2 [10]): 8.93±0.15
Span (SSTR2 [11]): 41±6 % of WT
pEC50 ± SEM (SSTR2 [11]): 7.37±0.27
EC50 (SSTR2 [12]): 0.01 nM
Span (SSTR2 [12]; mean ± SEM): 143±18 % of WT
Span (SSTR2 [13]): 108±5 % of WT
pEC50 ± SEM (SSTR2 [13]): 8.94±0.12
Span (SSTR2 [14]): 104±10 % of WT
pEC50 ± SEM (SSTR2 [14]): 9.26±0.23
Span (SSTR2 [15]): 215±18 % of WT
pEC50 ± SEM (SSTR2 [15]): 7.85±0.19
Span (SSTR2 [16]): 82±6 % of WT
pEC50 ± SEM (SSTR2 [16]): 9.18±0.17
Span (SSTR2 [17]): 79±6 % of WT
pEC50 ± SEM (SSTR2 [17]): 9.46±0.18
EC50 ratio (SSTR2 [18]; EC50(mutant)/EC50(WT)): 1
pEC50 ± SEM (SSTR2 [18]; HEK293F, mean ± SEM, at least three independent experiments): 9.67±0.08
Span (SSTR2 [18]; window between Emax and vehicle, mean ± SEM): 100±4 % of WT
Span (SSTR2 [19]): 95±8 % of WT
pEC50 ± SEM (SSTR2 [19]): 8.36±0.20
